What follows are test systems tested with O=C(NOCC1CC1)c1ccc(F)c(F)c1Nc1ccc(I)cc1Cl (assay: area under dose-response curve of surviving fraction (unscaled, Aref=0) (surviving fraction x log10(nM)); higher = more resistant). Conditions: exposure time: 5 days; dose range 0.5-1000 nM.
In short: (§1)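 Surviving fractions were fitted by 3-parameter logistic regression in the drc R package to give dose-response survival curves. They came from tumour cell lines treated for five days with eight inhibitor concentrations from 0.5 to 1000 nM and read by CellTiter-Glo luminescence against DMSO-only wells. The area under the curve is the unscaled activity area. It was calculated over log10 dose with Aref = 0.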

Test System | area under dose-response curve
CAL72 BONE | 3.52
G292 BONE | 3.17
HCC1395 BREAST | 3.01
HUO3N1 BONE | 3.35
LNCAP PROSTATE | 2.93
SCC003 HEADNECK | 2.83

These test systems were tested with C#Cc1cccc(Nc2ncnc3cc(OCCOC)c(OCCOC)cc23)c1 [ERLOTINIB] in the same assay as above. Conditions: exposure time: 5 days; dose range 0.5-1000 nM.
In short: as §1

Test System | area under dose-response curve
C33A CERVIX | 3.19
CAL72 BONE | 3.5
G292 BONE | 3.44
HCC1395 BREAST | 3.97
HUO3N1 BONE | 3.54
LNCAP PROSTATE | 3.2
SCC003 HEADNECK | 3.14

Each test system was assayed with CCC1=C[C@@H]2CN(C1)Cc1c([nH]c3ccccc13)[C@@](C(=O)OC)(c1cc3c(cc1OC)N(C)[C@H]1[C@@](O)(C(=O)OC)[C@H](OC(C)=O)[C@]4(CC)C=CCN5CC[C@]31[C@@H]54)C2 [VINORELBINE] in the same assay as above. Conditions: exposure time: 5 days; dose range 0.5-1000 nM.
In short: as §1

Test System | area under dose-response curve
C33A CERVIX | 1.62
CAL72 BONE | 2.14
G292 BONE | 1.48
HCC1395 BREAST | 2.74
HUO3N1 BONE | 2
LNCAP PROSTATE | 1.23
SCC003 HEADNECK | 1.98

What follows are test systems tested with CN(Cc1cnc2nc(N)nc(N)c2n1)c1ccc(C(=O)N[C@@H](CCC(=O)O)C(=O)O)cc1 [METHOTREXATE] in the same assay as above. Conditions: exposure time: 5 days; dose range 0.5-1000 nM.
In short: as §1

Test System | area under dose-response curve
C33A CERVIX | 2.33
CAL72 BONE | 2.39
G292 BONE | 3.41
HCC1395 BREAST | 3.78
HUO3N1 BONE | 2.8
LNCAP PROSTATE | 2.36
SCC003 HEADNECK | 2.41

These test systems were tested with CCCS(=O)(=O)Nc1ccc(F)c(C(=O)c2c[nH]c3ncc(Cl)cc23)c1F [PLX-4720] in the same assay as above. Conditions: exposure time: 5 days; dose range 0.5-1000 nM.
In short: as §1

Test System | area under dose-response curve
CAL72 BONE | 3.44
G292 BONE | 3.19
HCC1395 BREAST | 2.7
HUO3N1 BONE | 3.12
LNCAP PROSTATE | 3.17
SCC003 HEADNECK | 2.97

The test systems below were run with Cc1nc(Nc2n[nH]c3c2CN(C(=O)N[C@H](CN(C)C)c2ccccc2)C3(C)C)c2sccc2n1 in the same assay as above. Conditions: exposure time: 5 days; dose range 0.5-1000 nM.
In short: as §1

Test System | area under dose-response curve
C33A CERVIX | 0.95
CAL72 BONE | 1.77
G292 BONE | 1.22
HCC1395 BREAST | 3.37
HUO3N1 BONE | 2.38
LNCAP PROSTATE | 0.726
SCC003 HEADNECK | 1.57

These test systems were tested with NC1(c2ccc(-c3nc4ccn5c(=O)[nH]nc5c4cc3-c3ccccc3)cc2)CCC1 [MK2206] in the same assay as above. Conditions: exposure time: 5 days; dose range 0.5-1000 nM.
In short: as §1

Test System | area under dose-response curve
C33A CERVIX | 3.12
CAL72 BONE | 3.66
G292 BONE | 2.96
HCC1395 BREAST | 3.23
HUO3N1 BONE | 2.94
LNCAP PROSTATE | 2.02

These test systems were tested with COc1cc(CCc2cc(NC(=O)c3ccc(N4CC(C)NC(C)C4)cc3)n[nH]2)cc(OC)c1 [AZD4547] in the same assay as above. Conditions: exposure time: 5 days; dose range 0.5-1000 nM.
In short: as §1

Test System | area under dose-response curve
C33A CERVIX | 3.03
CAL72 BONE | 1.94
G292 BONE | 1.58
HCC1395 BREAST | 2.6
HUO3N1 BONE | 2.9
LNCAP PROSTATE | 2.84

Each test system was assayed with Nc1ccn([C@@H]2O[C@H](CO)[C@@H](O)C2(F)F)c(=O)n1 [GEMCITABINE] in the same assay as above. Conditions: exposure time: 5 days; dose range 0.5-1000 nM.
In short: as §1

Test System | area under dose-response curve
C33A CERVIX | 1.15
CAL72 BONE | 1.4
G292 BONE | 1.39
HUO3N1 BONE | 1.51
LNCAP PROSTATE | 1.22
SCC003 HEADNECK | 1.57

Each test system was assayed with CO[C@H]1C[C@@H]2CC[C@@H](C)[C@@](O)(O2)C(=O)C(=O)N2CCCC[C@H]2C(=O)O[C@H]([C@H](C)C[C@@H]2CC[C@@H](OCCO)[C@H](OC)C2)CC(=O)[C@H](C)/C=C(\C)[C@@H](O)[C@@H](OC)C(=O)[C@H](C)C[C@H](C)/C=C/C=C/C=C/1C [EVEROLIMUS] in the same assay as above. Conditions: exposure time: 5 days; dose range 0.5-1000 nM.
In short: as §1

Test System | area under dose-response curve
C33A CERVIX | 1.43
CAL72 BONE | 2.27
G292 BONE | 1.68
HCC1395 BREAST | 3.36
HUO3N1 BONE | 2.1
LNCAP PROSTATE | 1.21
